According to US20240315994A1, “SMALL MOLECULE MODULATORS OF FERROPTOSIS” (ARPEGGIO BIOSCIENCES, INC., priority 2021, published 2024):

Columns and labels:
Type in all cases: cell-based
[1] = test system: HT-1080 fibrosarcoma cells; assay: HT-1080 viability dose response in presence or absence of ferrostatin-1 or liproxstatin-1; conditions: HT-1080 cells, 100 μM to 100 nM, 48 hours, with/without 1.5 μM ferrostatin-1
Description: To determine whether the reduction in cell viability by the compounds identified in FIG. 1 is driven by induction of ferroptosis, we performed dose response curves for each compound in the presence or absence of ferrostatin-1 or liproxstatin-1, which prevent ferroptosis by functioning as radical trapping antioxidants at cellular membranes. Briefly, HT-1080 fibrosarcoma cells were plated 24 hours prior to treatment with a range of concentrations of each inhibitor compound ranging from 100 μM to 100 nM in the presence or absence of 1 μM liproxstatin-1 or 1.5 µM ferrostatin-1. Cell Titer Glo® was used to read out cell viability after 48 hours compound exposure. Data was collected in triplicate.
Compounds from the Enamine covalent inhibitor library with similar structures to compounds 8216, 6666 or 1816 were further screened for inducing cell death via ferroptosis. Briefly, HT-1080 fibrosarcoma cells were plated on black-sided clear bottom plates 24 hours prior to treatment, with or without the addition of 2× ferrostatin-1, which inhibits the process of ferroptosis and rescues cells from undergoing this form of cell death. Compounds were diluted in DMSO and media then added to the cells for a total of 24 hours at which point cell viability was read out via Cell Titer Glo. Compounds were tested at […] ranging from 50 μM to 5 nM at half log dilutions.
FIG. 14 is a panel of plots 1400 showing relative viability of HT-1080 fibrosarcoma cells exposed to 15 inhibitor compounds with similar structures to 8216, 6666, or 1816 tested over a range of concentrations from 50 μM to 5 nM at half log dilutions in the presence of (red line) and absence of (black line) 1.5 μM ferrostatin-1. Ferrostatin-1 is a lipophilic antioxidant which inhibits the process of ferroptosis and rescues cells from undergoing this form of cell death. The black line is the relative HT-1080 fibrosarcoma cell viability in the absence of ferrostatin-1 and the red line is the relative HT-1080 fibrosarcoma cell viability in the presence of 1.5 μM ferrostatin-1. HT-1080 fibrosarcoma cells were plated on side-blackened, clear bottom plates 24 hours prior to treatment, with or without the addition of 2× ferrostatin-1. Each compound was diluted in DMSO and media and then added to the cells for a total of 24 hours, at which point cell viability was read out via Cell Titer Glo.

[2] = test system: HK-2 kidney epithelial cells; assay: HK-2 kidney epithelial cell viability dose response (Cell Titer Glo); conditions: healthy HK-2 vs cancer HT-1080 cells
Description: To test whether the ferroptosis-inducing compounds 8216 or 1962 display selectivity for cancer cells we performed a dose response study in HK-2 kidney epithelial cells. HK-2 kidney epithelial cells are a non-cancerous cell line that is commonly used as a “healthy” control in ferroptosis experiments. Briefly, HK-2 kidney epithelial cells were plated 24 hours prior to treatment with concentrations of the ferroptosis-inducing compounds 8216 or 1962 ranging from 10 µM to 10 nM. The ferroptosis-inducing compound RSL3 was used as a positive control. As an additional control, we included a non-specific inducer of apoptosis, staurosporine. Cell Titer Glo® was used to read out cell viability after 48 hours of compound exposure. Data was collected in triplicate.
To determine whether the reduction in viability of HK-2 renal epithelial cells exposed to compounds 8216 or 1962 is driven by induction of ferroptosis, we performed dose response curves for each compound in the presence or absence of ferrostatin-1. We also compared the EC50s for each compound between healthy cells (HK-2 renal epithelial cells) and cancer cells (HT-1080 fibrosarcoma cells) to determine a therapeutic window for healthy vs diseased cells. […] Cell Titer Glo® was used to read out cell viability after 48 hours of compound exposure. […]

[3] = test system: HT-1080 fibrosarcoma cells; assay: Bodipy C-11 lipid peroxidation imaging in HT-1080 cells; conditions: 10 μM, 1 hour, with or without 1.5 μM ferrostatin-1, ferrostatin-1 rescued
Description: Compounds 6666, 6047, […], 8216, and 8147 were also evaluated for inducing lipid peroxidation in HT-1080 fibrosarcoma cells in the presence or absence of 1.5 µM ferrostatin-1. Briefly, HT-1080 fibrosarcoma cells were treated with 10 µM of compound with or without 1.5 μM ferrostatin-1 and incubated at 37° C. for 1 hour. Bodipy C-11 and Hoescht stain were then added to the media, the cells were allowed to incubate for an additional 30 minutes and then were imaged on the Opera Phenix confocal screening system.

| Structure (SMILES) | cell death and rescue by ferrostatin-1 [1] | therapeutic window (HK-2 vs HT-1080 EC50 difference) [2] | lipid peroxidation (Bodipy C-11 emission shift) [3] |
| --- | --- | --- | --- |
| CCOc1ccc(C[C@@H]2c3cc(OCC)c(OCC)cc3CCN2C(=O)CCl)cc1OCC [Compound 3362] | cell death that was rescued by the addition of the antioxidant ferrostatin-1 | – | – |
| CCCCCN(C(=O)CCl)c1c(N)n(CCCC)c(=O)[nH]c1=O [Compound 1816] | cell death that was rescued by the addition of the antioxidant ferrostatin-1 | – | – |
| O=C(CCl)N1c2ccccc2OC[C@@H]1c1ccccc1 [Compound 1962] | cell death that was rescued by the addition of the antioxidant ferrostatin-1 | – | – |
| O=C(CCl)N(Cc1ccc(F)cc1)C1CCCCC1 [Compound 8216] | cell death that was rescued by the addition of the antioxidant ferrostatin-1 | comparable to that of RSL3 | shift in emission reflective of lipid peroxidation |
